# Source: ChEMBL document CHEMBL1122468, “Synthesis of (7R)-7H-indolo[3,4-gh][1,4]benzoxazines, a new class of D-heteroergolines with dopamine agonist activity” (J Med Chem, 1983)
# Assays:
# Dopamine receptor = test: In vitro affinity for dopamine receptor by displacement of [3H]- apomorphine in rat striatal membranes; format: cell membranes, Membrane
# Rattus norvegicus = test: In vivo measure of dopaminergic activity by the induction of contralateral turning behavior in 6-hydroxydopamine (6-OHDA) lesioned rats, ip; format: functional
# [1] = biological target: T1, Cerebral cortex alpha adrenergic receptor (Bos taurus, UniProt Q28838+P18130); test: In vitro affinity for alpha adrenergic receptor by displacement of 3[H]clonidine in calf cerebral cortex; format: tissue-based
# T1 sequence (Q28838 whole entry): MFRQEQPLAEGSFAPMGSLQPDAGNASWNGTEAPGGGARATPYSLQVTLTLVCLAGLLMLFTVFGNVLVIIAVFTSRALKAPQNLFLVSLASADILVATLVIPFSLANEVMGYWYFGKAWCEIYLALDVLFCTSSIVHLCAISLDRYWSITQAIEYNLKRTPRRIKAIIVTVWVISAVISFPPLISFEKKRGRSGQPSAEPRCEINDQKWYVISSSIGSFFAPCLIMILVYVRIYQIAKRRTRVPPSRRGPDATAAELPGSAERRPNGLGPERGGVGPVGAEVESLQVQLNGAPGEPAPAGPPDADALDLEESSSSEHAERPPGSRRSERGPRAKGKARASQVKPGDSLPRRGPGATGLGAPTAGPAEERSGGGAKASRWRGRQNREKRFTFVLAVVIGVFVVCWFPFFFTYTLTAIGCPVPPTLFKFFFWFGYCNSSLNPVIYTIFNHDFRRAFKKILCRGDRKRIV
# T1 sequence (P18130 whole entry): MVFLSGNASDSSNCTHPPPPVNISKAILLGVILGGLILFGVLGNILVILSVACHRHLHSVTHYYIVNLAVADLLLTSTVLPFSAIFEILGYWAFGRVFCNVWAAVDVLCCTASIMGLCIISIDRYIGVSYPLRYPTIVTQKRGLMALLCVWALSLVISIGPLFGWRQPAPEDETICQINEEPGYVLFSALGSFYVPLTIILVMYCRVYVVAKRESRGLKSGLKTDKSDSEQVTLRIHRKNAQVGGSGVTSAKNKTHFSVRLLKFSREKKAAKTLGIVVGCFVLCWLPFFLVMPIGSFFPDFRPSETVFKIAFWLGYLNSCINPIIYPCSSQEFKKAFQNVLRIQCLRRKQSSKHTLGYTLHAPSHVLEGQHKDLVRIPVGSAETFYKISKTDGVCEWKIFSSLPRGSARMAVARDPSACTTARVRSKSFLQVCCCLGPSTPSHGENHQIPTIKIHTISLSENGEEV
# [2] = Rattus norvegicus, ip, read-out: ED50
Structure (SMILES),IC50 (Dopamine receptor) [nM],ED50 (Rattus norvegicus; [2]) [mg/kg],IC50 [1] [nM],ED50 (Rattus norvegicus) [mg/kg]
CCCN1CCO[C@@H]2c3cccc4[nH]cc(c34)C[C@H]21,2.2,0.028,31,–
CC(C)C[C@H]1C(=O)N2CCC[C@H]2[C@]2(O)O[C@](NC(=O)[C@@H]3C=C4c5cccc6[nH]c(Br)c(c56)C[C@H]4N(C)C3)(C(C)C)C(=O)N12 [BROMOCRIPTINE],–,2.8,–,–
CCN1CCO[C@@H]2c3cccc4[nH]cc(c34)C[C@H]21 (stereo in doubt; 6b),4.65,–,15,0.09
CCN1CCO[C@@H]2c3cccc4[nH]cc(c34)C[C@H]21 (relative stereo),1240,–,1354,>5
CCN1CCO[C@@H]2c3cccc4[nH]cc(c34)C[C@H]21 (stereo in doubt; (+)6b),219,–,34,7.5
CCCCN1CCO[C@@H]2c3cccc4[nH]cc(c34)C[C@H]21,33,1.1,46,–
CN1CCO[C@@H]2c3cccc4[nH]cc(c34)C[C@H]21,28.9,0.18,27,–
CCN1CCO[C@@H]2c3cccc4[nH]cc(c34)C[C@H]21 (stereo in doubt; (-)6b),2,–,7,0.027
C=CCN1CCO[C@@H]2c3cccc4[nH]cc(c34)C[C@H]21,23,0.15,206,–
CCCN1C[C@H](CSC)C[C@@H]2c3cccc4[nH]cc(c34)C[C@H]21 [PERGOLIDE],–,0.1,–,–
c1cc2c3c(c[nH]c3c1)C[C@H]1NCCO[C@H]21,59.6,0.76,55,–
